Laboratory results taken from US8952024B2, “Herbicidal pyrimidone derivatives” (E I du Pont de Nemours and Company, priority 2009, dated 2015).

Tests used:
Test in all cases: Test B pre-/postemergence plant response
Assay type in all cases: in vivo
[1] = tested on: Italian ryegrass (Lolium multiflorum)
Outline: (§1)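 Test compounds, formulated in a non-phytotoxic solvent mixture with surfactant, are applied to the soil surface (loam and sand blend) right after seeding, or sprayed over plants at the 1- to 4-leaf stage grown in peat moss/vermiculite medium. After 13 to 15 days under glasshouse conditions, each species is scored visually from 0 (no effect) to 100 (complete control) against controls.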

[2] = tested on: Surinam grass (Brachiaria decumbens)
Outline: as §1

[3] = tested on: bermudagrass (Cynodon dactylon)
Outline: as §1

[4] = tested on: blackgrass (Alopecurus myosuroides)
Outline: as §1

corn (Zea mays) = tested on: corn (Zea mays)
Outline: as §1

[5] = tested on: downy bromegrass (Bromus tectorum)
Outline: as §1

[6] = tested on: giant foxtail (Setaria faberii)
Outline: as §1

[7] = tested on: goosegrass (Eleusine indica)
Outline: as §1

[8] = tested on: green foxtail (Setaria viridis)
Outline: as §1

[9] = tested on: johnsongrass (Sorghum halepense)
Outline: as §1

kochia (Kochia scoparia) = conditions: Postemergence; for Plant response rating, Kochia: scale 0 (no effect) to 100 (complete control)
Outline: as §1

[10] = tested on: lambsquarters (Chenopodium album)
Outline: as §1

[11] = tested on: large crabgrass (Digitaria sanguinalis)
Outline: as §1

[12] = tested on: ragweed (common ragweed, Ambrosia elatior)
Outline: as §1

[13] = tested on: velvetleaf (Abutilon theophrasti)
Outline: as §1

[14] = tested on: woolly cupgrass (Eriochloa villosa)
Outline: as §1

[15] = tested on: yellow nutsedge (Cyperus esculentus)
Outline: as §1

[16] = 250 g ai/ha, Preemergence, 0 to 100 scale
[17] = Postemergence, 62 g ai/ha, scale 0 (no effect) to 100 (complete control), 13 to 15 days
[18] = Postemergence, 125 g ai/ha, visual rating after 13 to 15 days, scale 0 (no effect) to 100 (complete control)
[19] = Preemergence, 31 g ai/ha, scale 0 to 100 (0 no effect, 100 complete control)
[20] = Preemergence, 125 g ai/ha, 0 to 100 scale
[21] = Postemergence, 31 g ai/ha, scale 0 to 100 (0 no effect, 100 complete control)
[22] = Postemergence, 250 g ai/ha, scale 0 to 100
[23] = Preemergence, 62 g ai/ha, scale 0 to 100, 0 no effect, 100 complete control

Cc1ccc(-n2c(-c3cccc(Cl)c3)ncc(C(=O)C3=C(O)CCCC3=O)c2=O)cc1 [Compound 39]
95: Plant response rating, Foxtail, Giant [6, 18] | Foxtail, Giant plant response rating [6, 22] | Kochia plant response rating (kochia (Kochia scoparia); 250 g ai/ha, scale 0 to 100) | Plant response rating, Lambsquarters [10, 17] | Plant response rating, Crabgrass, Large [11, 23] | Plant response rating, Ragweed [12, 16] | Plant response rating, Ragweed [12, 18]
5: Plant response rating, Ryegrass, Italian [1, 17] | Plant response rating, Ryegrass, Italian [1, 18]
75: Plant response rating, Foxtail, Giant [6, 16] | Plant response rating, Foxtail, Giant [6, 21] | Goosegrass plant response rating [7, 22] | Foxtail, Green plant response rating [8, 20] | Plant response rating, Johnsongrass [9, 16] | Plant response rating, Crabgrass, Large [11, 21] | Ragweed plant response rating [12, 20] | Velvetleaf plant response rating [13, 20]
65: Plant response rating, Surinam Grass [2, 17] | Plant response rating, Surinam Grass [2, 18] | Corn plant response rating (corn (Zea mays); [22]) | Plant response rating, Goosegrass [7, 18] | Plant response rating, Johnsongrass [9, 17] | Johnsongrass plant response rating [9, 20] | Plant response rating, Cupgrass, Woolly [14, 21]
80: Plant response rating, Foxtail, Green [8, 21] | Plant response rating, Foxtail, Green [8, 17] | Plant response rating, Crabgrass, Large [11, 17] | Plant response rating, Velvetleaf [13, 17] | Plant response rating, Velvetleaf [13, 18]
10: Surinam Grass plant response rating [2, 20] | Plant response rating, Cupgrass, Woolly [14, 16] | Plant response rating, Nutsedge, Yellow [15, 16]
100: Plant response rating, Bermudagrass [3, 16] | Bermudagrass plant response rating [3, 22] | Plant response rating, Bermudagrass [3, 23] | Bermudagrass plant response rating [3, 20] | Plant response rating, Goosegrass [7, 16] | Goosegrass plant response rating [7, 20] | Plant response rating, Foxtail, Green [8, 16] | Plant response rating, Lambsquarters [10, 16] | Plant response rating, Lambsquarters [10, 18] | Lambsquarters plant response rating [10, 22] | Plant response rating, Lambsquarters [10, 19] | Plant response rating, Lambsquarters [10, 23] | Lambsquarters plant response rating [10, 20] | Plant response rating, Crabgrass, Large [11, 16] | Crabgrass, Large plant response rating [11, 20]
45: Plant response rating, Corn (corn (Zea mays); [17]) | Plant response rating, Corn (corn (Zea mays); [18]) | Plant response rating, Foxtail, Giant [6, 23] | Plant response rating, Kochia (kochia (Kochia scoparia); 62 g ai/ha, 13 to 15 days)
20: Blackgrass plant response rating [4, 22]
0: Plant response rating, Ryegrass, Italian [1, 16] | Plant response rating, Ryegrass, Italian [1, 19] | Ryegrass, Italian plant response rating [1, 20] | Plant response rating, Surinam Grass [2, 19] | Plant response rating, Blackgrass [4, 16] | Plant response rating, Blackgrass [4, 21] | Plant response rating, Blackgrass [4, 17] | Plant response rating, Blackgrass [4, 18] | Plant response rating, Blackgrass [4, 19] | Plant response rating, Blackgrass [4, 23] | Blackgrass plant response rating [4, 20] | Plant response rating, Corn (corn (Zea mays); [16]) | Plant response rating, Corn (corn (Zea mays); [19]) | Plant response rating, Corn (corn (Zea mays); [23]) | Corn plant response rating (corn (Zea mays); [20]) | Plant response rating, Bromegrass, Downy [5, 16] | Plant response rating, Bromegrass, Downy [5, 21] | Plant response rating, Bromegrass, Downy [5, 17] | Plant response rating, Bromegrass, Downy [5, 18] | Bromegrass, Downy plant response rating [5, 22] | Plant response rating, Bromegrass, Downy [5, 19] | Plant response rating, Bromegrass, Downy [5, 23] | Bromegrass, Downy plant response rating [5, 20] | Plant response rating, Foxtail, Giant [6, 19] | Plant response rating, Johnsongrass [9, 19] | Plant response rating, Ragweed [12, 19] | Plant response rating, Cupgrass, Woolly [14, 19] | Plant response rating, Cupgrass, Woolly [14, 23] | Cupgrass, Woolly plant response rating [14, 20] | Plant response rating, Nutsedge, Yellow [15, 17] | Plant response rating, Nutsedge, Yellow [15, 19] | Nutsedge, Yellow plant response rating [15, 20]
98: Johnsongrass plant response rating [9, 22] | Plant response rating, Velvetleaf [13, 16]
85: Plant response rating, Bermudagrass [3, 18] | Plant response rating, Bermudagrass [3, 19] | Plant response rating, Foxtail, Giant [6, 17] | Plant response rating, Goosegrass [7, 19] | Plant response rating, Crabgrass, Large [11, 18] | Plant response rating, Ragweed [12, 17] | Plant response rating, Cupgrass, Woolly [14, 17] | Plant response rating, Cupgrass, Woolly [14, 18]
55: Plant response rating, Goosegrass [7, 17] | Plant response rating, Crabgrass, Large [11, 19]
15: Plant response rating, Surinam Grass [2, 16] | Plant response rating, Velvetleaf [13, 19] | Plant response rating, Nutsedge, Yellow [15, 18]
25: Plant response rating, Corn (corn (Zea mays); [21])
70: Foxtail, Giant plant response rating [6, 20]
60: Plant response rating, Bermudagrass [3, 17] | Plant response rating, Johnsongrass [9, 23] | Plant response rating, Kochia (kochia (Kochia scoparia); 125 g ai/ha, visual rating after 13 to 15 days)
90: Plant response rating, Foxtail, Green [8, 18] | Foxtail, Green plant response rating [8, 22] | Plant response rating, Johnsongrass [9, 18] | Crabgrass, Large plant response rating [11, 22] | Cupgrass, Woolly plant response rating [14, 22]
50: Plant response rating, Bermudagrass [3, 21]
